As a reminder, the logP is the decadic logarithm of the partition coefficient of the neutral form, usually between octanol and water. Read a high logP as higher lipophilicity. For orientation: solubility means how much of the substance goes into solution per volume. Lower therefore signals a poorly soluble substance.

Values after ≈ are worked out from the molar mass of the structure shown.

Details in the first series: not given
Compound `CON(C)C(=O)Nc1ccc(Br)cc1` gave a logP of 2.38.

On to `CCCOC(=O)Nc1ccccc1`, for which the logP was 2.8.

Compound `Cc1cc(NC(N)=O)ccc1F` came in with a logP of 1.59.

As for `CNC(=O)Nc1ccc(Cl)c(Cl)c1`, the logP was found to be 2.94.

`NC(=O)Nc1cccc(C(F)(F)F)c1` gave a logP of 2.31.

On to `CNC(=O)Nc1ccc(C)c(Cl)c1`, for which the logP was 2.61.

As to `COc1ccc(NC(=O)N(C)C)cc1`, the lipophilicity (logP) was 0.83.

`COc1ccc(NC(N)=O)cc1Cl` showed a log partition coefficient (logP) of 1.37.

As to `O=[N+]([O-])c1ccc(Br)c(Cl)c1`, the logP stood at 3.25.

On to `O=C(Nc1ccccc1)NC1CCCC1`, for which the lipophilicity (logP) stood at 2.65.

With `CNC(=O)Nc1cccc(Cl)c1`, the logP was 2.18.

For the compound `CCCCOC(=O)Nc1ccccc1`, the logP was 3.3.

In the case of `COc1cccc(NC(=O)N(C)C)c1`, the lipophilicity (logP) turned out to be 1.73.

The series is the same for the next values; noted with them: 25 °C.
In turn, `CC(=O)Nc1ccccc1Cl` had a solubility of 39.8 mM (≈ 6750 µg/mL).

The compound `CC(=O)Nc1cccc(C)c1` registered a solubility of 8.11 mM (≈ 1210 µg/mL).

The values are drawn from the OPERA property sets (Mansouri et al. 2018).
